Experimental findings from ChEMBL document CHEMBL1145263, “Redox-responsive and calcium-dependent switching of glycosyldisulfide interactions with Concanavalin A” (Bioorg Med Chem Lett, 2005) are described below.

The nature of assay [1]: Inhibitory concentration against mannan binding relative to concanavalin A; Using QCM(quartz crystal microbalance) assay; NA= Not active.
The nature of assay [2]: (§1) Inhibitory concentration against mannan binding relative to concanavalin A; Using QCM(quartz crystal microbalance) assay.
Assay [3] is described as follows: as §1. The source holds these as a separate data set.

In general, IC50 refers to the midpoint of a concentration-inhibition curve. Read a low IC50 as higher potency. For the compound `COC1O[C@H](CSSCC2O[C@H](OC)C(O)[C@@H](O)[C@@H]2O)C(O)[C@@H](O)[C@@H]1O` (stereo partly specified), the IC50 entry in assay [1] is recorded as “Not Active”. The compound `CO[C@H]1O[C@H](CO)[C@@H](O)[C@H](O)[C@@H]1O` gave an IC50 in assay [2] of 1100 µM. Consider `OCC1O[C@H](S)C(O)[C@@H](O)[C@@H]1O` (stereo partly specified), for which the Inhibition in assay [3] stood at 10 mM.

As to `CC(=O)NC1C(O)[C@@H](O)C(CO)O[C@H]1SS[C@@H]1OC(CO)[C@H](O)[C@@H](O)C1NC(C)=O` (single isomer, unassigned), the IC50 result in assay [1] is recorded as “Not Active”. `CC(=O)NC1[C@@H](O)[C@H](O)C(CO)O[C@H]1SS[C@@H]1OC(CO)[C@@H](O)[C@@H](O)C1NC(C)=O` (stereo in doubt) yielded an IC50 in assay [2] of 2000 µM. On the same count and under the same terms, the value for `OC[C@H]1OC(O)[C@@H](O)[C@@H](O)[C@@H]1O` (stereo partly drawn) [D-MANNOSE] was 5300 µM.
